Test results taken from patent publication US20220249598A1, “COMPOSITIONS TARGETING SPERM CALCINEURIN” (Kent State University, priority 2019, published 2022).
“Also recorded” adds a separate entry of the source.

Legend:
[1] = cited from earlier work
[2] = 0.1% tacrolimus formulations; cited from earlier work
[3] = test system: mouse caudal spermatozoa; assay: in vitro fertilization (IVF) with inhibitor-treated spermatozoa, two-cell stage formation; assay type: cell-based
Method: Nanomolar doses of FK506 were used to treat spermatozoa and then use those cells were used for in vitro fertilization (IVF) assays. The treated spermatozoa were exposed to three different types oocyte conditions while performing IVF: a) regular IVF with intact oocyte-cumulus complex, b) cumulus-free intact oocyte and c) cumulus-free zona-free oocyte.
A) Spermatozoa were incubated under capacitating medium (viz. […] Additionally, oocytes were also incubated with same concentration of FK506, which it encounters during the IVF, the corresponding spermatozoa set was untreated. […] B) Dose response curve of FK506 at 0, 2.5, 5, 10, 20 & 50 nM concentration.

[4] = target: sperm calcineurin (Mus musculus, UniProt P26883+P48455+Q63811); assay: calcineurin activity in sperm; assay type: biochemical
Method: The effect of calcineurin inhibitor on GSK3αβ phosphorylation was studied by Western blot procedure. Calcium dependence of calcineurin mediated GSK3α regulation was also checked. Both GSK3 activity and Calcineurin activity were measured in presence of FK506. […] A) Modulation of phospho-serine/tyrosine profile GSK3α by FK506 (20 nM) during capacitation; for capacitation spermatozoa were incubated with ‘capacitation medium’, HTF or TYH for ˜90 min. B) phosphor-serine GSK3α status was checked during capacitation with TYH medium having high fatty acid containing BSA. C) Possible involvement of AKT in mediation of calcineurin induced regulation of GSK3α. D) Validation of involvement of extracellular calcium in GSK3α regulation; no calcium salt was added in the ‘−Ca^2+’ set, 10 μM BAPTA-AM was used to chelate intra-sperm Ca^2+ ions; CatSper1 phosphorylation was compared between wild type and ppp3r2 knockout sperm extract E) GSK3 activity of sperm cells under capacitating condition was checked using p^32radioactive ATP for phosphorylation of substrate. F) Co-relation among intracellular free calcium levels of different maturational stages of sperm cells with calcineurin activity was measured; for negative control, 20 nM of FK506 was used.

[5] = test system: oocytes; assay: IVF with oocytes pre-incubated with inhibitor, spermatozoa untreated; assay type: cell-based, mouse; conditions: oocytes incubated with same concentration of FK506 (20 nM)
Method: FIG. 1 illustrates the effect of treatments of mouse caudal spermatozoa with calcineurin and GSK3 inhibitors on in vitro fertilization, indicated by two-cell stage formation. A) Spermatozoa were incubated under capacitating medium (viz. […] Additionally, oocytes were also incubated with same concentration of FK506, which it encounters during the IVF, the corresponding spermatozoa set was untreated. All data represent mean±SEM of n=3 for all the values. *p≤0.05 versus control. B) Dose response curve of FK506 at 0, 2.5, 5, 10, 20 & 50 nM concentration. C) Representative images showing effect of FK506 on IVF; black triangles directing the two-cell stage after fertilization of eggs.

[6] = test system: sperm GSK3; assay: GSK3 activity of sperm cells with p32 radioactive ATP; assay type: biochemical, mouse; conditions: capacitating condition
Method: (§1) The effect of calcineurin inhibitor on GSK3αβ phosphorylation was studied by Western blot procedure. Calcium dependence of calcineurin mediated GSK3α regulation was also checked. Both GSK3 activity and Calcineurin activity were measured in presence of FK506. FIG. 3 illustrates the regulation of GSK3α in mouse sperm by FK506. A) Modulation of phospho-serine/tyrosine profile GSK3α by FK506 (20 nM) during capacitation; for capacitation spermatozoa were incubated with ‘capacitation medium’, HTF or TYH for ˜90 min. B) phosphor-serine GSK3α status was checked during capacitation with TYH medium having high fatty acid containing BSA. C) Possible involvement of AKT in mediation of calcineurin induced regulation of GSK3α. D) Validation of involvement of extracellular calcium in GSK3α regulation; no calcium salt was added in the ‘−Ca^2+’ set, 10 μM BAPTA-AM was used to chelate intra-sperm Ca^2+ ions; […] phosphorylation was compared between wild type and ppp3r2 knockout sperm extract E) GSK3 activity of sperm cells under capacitating condition was checked using p^32radioactive ATP for phosphorylation of substrate. F) Co-relation among intracellular free calcium levels of different maturational stages of sperm cells with calcineurin activity was measured; for negative control, 20 nM of FK506 was used. All data represent mean±SEM of n=4 for all the values. *p≤0.05, **p≤0.01 versus control.

[7] = test system: mouse caudal spermatozoa; assay: IVF of treated spermatozoa with cumulus-free zona-free oocytes; assay type: cell-based; conditions: FK506 20 nM, FIG. 2A
Method: Nanomolar doses of FK506 were used to treat spermatozoa and then use those cells were used for in vitro fertilization (IVF) assays. The treated spermatozoa were exposed to three different types oocyte conditions while performing IVF: a) regular IVF with intact oocyte-cumulus complex, b) cumulus-free intact oocyte and c) cumulus-free zona-free oocyte. FIG. 2 illustrates the detection of FK506 induced defect in sperm motility and oocyte penetration. A) FK506 (20 nM) treated spermatozoa were used for both cumulus free zona intact oocytes as well as zona-free oocytes. B) Effect of FK506 treatment for (120-180 min) on sperm hyperactivation controlling parameters; VAP: average path velocity, VCL: curvilinear velocity, ALH: lateral head amplitude.

[8] = test system: mouse sperm; assay: sperm motility / hyperactivation by computer assisted sperm analyzer (CASA); assay type: cell-based; conditions: FK506 treatment 120-180 min, capacitation; FIG. 2B
Method: Another set of treated sperm cell was analyzed for its motility parameters using computer assisted sperm analyzer (CASA). Average path velocity (VAP), curvilinear velocity (VCL) and amplitude of lateral head displacement (ALH) were measured to assess hyperactivation. FIG. 2 illustrates the detection of FK506 induced defect in sperm motility and oocyte penetration. A) FK506 (20 nM) treated spermatozoa were used for both cumulus free zona intact oocytes as well as zona-free oocytes. B) Effect of FK506 treatment for (120-180 min) on sperm hyperactivation controlling parameters; VAP: average path velocity, VCL: curvilinear velocity, ALH: lateral head amplitude.

[9] = test system: GSK3α; assay: GSK3 phosphorylation in sperm by Western blot; assay type: cell-based, mouse; conditions: FK506 20 nM during capacitation
Method: as §1

For `C=CC[C@@H]1/C=C(\C)C[C@H](C)C[C@H](OC)[C@H]2O[C@@](O)(C(=O)C(=O)N3CCCC[C@H]3C(=O)O[C@H](/C(C)=C/[C@@H]3CC[C@@H](O)[C@H](OC)C3)[C@H](C)[C@@H](O)CC1=O)[C@H](C)C[C@@H]2OC` [FK506, tacrolimus], the “titer of the drug in blood” value ([1]; 0.1% tacrolimus formulations) is given as “nanomolar titer”, the “bioavailability from an ointment formulation” value ([1]; topical ointment) is given as about 0.5% and the skin side effects [2] is given as “increased sensitivity of skin, burning, stinging or itching sensations”. The “inhibition of sperm ability to fertilize eggs in vitro, dose response” value ([3]; FK506 at 0, 2.5, 5, 10, 20 & 50 nM) was “good enough to inhibit”, the “inhibition of fertilizing ability of sperm in vitro” value ([3]; sperm incubated 1 hr at 37° C. in capacitating medium, FK506 20 nM, cyclosporin A 10 μM, two-cell stage formation, FIG. 1A) was “significantly and independently inhibit; also recorded: inhibited fertilization” and the “inhibition of sperm calcineurin” value [4] was “inhibits sperm calcineurin at nanomolar level”. The “reduction in fertilization after pre-treatment of oocytes” value [5] was “did not result in any reduction in fertilization”, the “catalytic activity of sperm GSK3” value [6] was “decrease in catalytic activity” and the “fertilization of zona-free eggs by treated sperm” value [7] was “not affecting sperm cells to fertilize zona-free eggs”. The “hyperactivation of sperm (VAP, VCL, ALH)” value [8] was “mostly unable to exhibit hyperactivity; also recorded: lack of attainment of hyperactivation” and the “net phosphorylation of sperm GSK3” value [9] was “increase in the net phosphorylation”.
